From article PMC12013366, “In vitro evaluation of the immunogenic potential of gramicidin S and its photocontrolled analogues” (RSC Medicinal Chemistry, 2025)
Non-standard residues stand in square brackets, D forms with d. Residues, ends and D or L forms follow the SMILES beside them. Orn = NCCC[C@H](N)C(=O)O

Key:
[1] = tested on: calreticulin (CALR) on HepG2 cells; assay: CALR exposure on the cell surface, fluorescence microscopy; assay type: cell-based, human; settings: HepG2 monolayer; 32 μM; 24 h; Alexa Fluor 647 anti-CALR antibody, normalized to non-treated cells; n=2
Procedure: (§1) We performed fluorescence microscopy using an Alexa Fluor 647 anti-CALR antibody for quantifying the CALR exposure on the surface of cells. Confluent monolayer 4T1, HeLa, HepG2 and MDA-MB-231 cell cultures were incubated with GS and GS-derived peptides for 24 h followed by fixation, staining with the antibody and microscopic observation. Using the images, we calculated the total levels of the fluorescence signal per cell in each sample. […] To examine the time dependence of the CALR exposure, cytofluorimetric experiments were conducted on the MDA-MB-231 cell line (Fig. 9) using an Alexa Fluor 647 anti-CALR antibody. In this experiment, 30 min, 3 h, 6 h and 24 h were the time points for monitoring the fraction of cells expressing CALR on their surface.
(§2) The cells were seeded (10 000 cells per well for 4T1; 20 000 cells per well for HeLa and MDA-MB-231; 30 000 cells per well for HepG2) in 200 μL of appropriate medium in a 96-well black-wall transparent-bottom plate (6055302, Revvity). After 24 h incubation, the medium was aspired and 100 μL of fresh medium was added. The compounds (64, 32, 16 and 8 μM for closed photoforms; 32, 16, 8 and 4 μM for open photoforms and GS) along with the negative (1% DMSO) control were prepared in DMEM and dispensed in 100 μL per well for 24 h. Then 50 μL of 20% paraformaldehyde (28908, Thermo Fisher) was added for 15 min for fixation. […]

[2] = tested on: calreticulin (CALR) on MDA-MB-231 cells; assay: as above; assay type: cell-based, human; settings: MDA-MB-231 monolayer; 8 and 16 μM; 24 h; Alexa Fluor 647 anti-CALR antibody, normalized to non-treated cells; n=2
Procedure: as §1, §2

[3] = tested on: calreticulin (CALR) on 4T1 cells; assay: as above; assay type: cell-based, murine; settings: 4T1 monolayer; 8 and 16 μM; 24 h; Alexa Fluor 647 anti-CALR antibody, normalized to non-treated cells; n=2
Procedure: as §1, §2

[4] = tested on: membrane-bound CALR on MDA-MB-231 cells; assay: CALR exposure, cytofluorimetric measurements; assay type: cell-based, human; settings: concentrations higher than IC50 (16 and 32 μM), flow cytometry
Procedure: We performed fluorescence microscopy using an Alexa Fluor 647 anti-CALR antibody for quantifying the CALR exposure on the surface of cells. Confluent monolayer 4T1, HeLa, HepG2 and MDA-MB-231 cell cultures were incubated with GS and GS-derived peptides for 24 h followed by fixation, staining with the antibody and microscopic observation. Using the images, we calculated the total levels of the fluorescence signal per cell in each sample. […] While practically no enhancement in CALR exposure could be detected in the HeLa cell culture, a 4–7-fold enhancement is observed for HepG2 at 32 μM of GS, LMB002-open and LMB033-open. Then 8 and 16 μM of GS caused a 3-fold increase of CALR exposure in breast cancer cell lines 4T1 and MDA-MB-231. We noted no direct dose dependence of CALR release in our experiments. It may stem from the difference in the kinetics of CALR exposure. To examine the time dependence of the CALR exposure, cytofluorimetric experiments were conducted on the MDA-MB-231 cell line (Fig. 9) using an Alexa Fluor 647 anti-CALR antibody. In this experiment, 30 min, 3 h, 6 h and 24 h were the time points for monitoring the fraction of cells expressing CALR on their surface.
This is different from the release kinetics of ATP, which was released from the cytosol of the cells with compromised plasma membranes almost immediately after the treatment with our peptides. […]

CC(C)C[C@@H]1NC(=O)[C@H](CCCN)NC(=O)[C@H](C(C)C)NC(=O)[C@@H]2CCCN2C(=O)[C@@H](Cc2ccccc2)NC(=O)[C@H](CC(C)C)NC(=O)[C@H](CCCN)NC(=O)[C@H](C(C)C)NC(=O)[C@@H]2CCCN2C(=O)[C@@H](Cc2ccccc2)NC1=O [Gramicidin S, gramicidin S] (cyclo(V[Orn]L[dF]PV[Orn]L[dF]P))
enhancement in CALR exposure [1]: 4–7 fold | increase of CALR exposure [2]: 3 fold | increase of CALR exposure [3]: 3 fold | incubation time after which all cells exposed CALR on their surface [4]: 3 h
